# Assay results reported in ChEMBL document CHEMBL4376889, “Discovery of a Brain-Penetrant ATP-Competitive Inhibitor of the Mechanistic Target of Rapamycin (mTOR) for CNS Disorders” (J Med Chem, 2020).
# The source made the active and inactive calls. No cut-off for these calls is given here.
# Key:
# [1] = Ratio of drug concentration in brain to plasma in C57BL/6 mouse at 1 mg/kg, iv incubated for 7 hrs by LC-MS/MS analysis; assay type: ADME, organism-based; settings: read-out: BPR
# [2] = MRT (0 to t) in Sprague-Dawley rat at 1 mg/kg, iv or 3 mg/kg, po by HPLC analysis; assay type: ADME, organism-based; settings: in vivo
# [3] = Drug uptake in C57BL/6J mouse plasma at 10 mg/kg, po incubated for 3 hrs by LC-MS/MS analysis; assay type: ADME, organism-based
# [4] = Half life in C57BL/6 mouse at 1 mg/kg, iv or 5 mg/kg, po by HPLC analysis; assay type: ADME, organism-based; settings: in vivo
# [5] = Ratio of drug concentration in brain to plasma in Sprague-Dawley rat at 3 mg/kg, po incubated for 1 hr by LC-MS/MS analysis; assay type: ADME, organism-based; settings: read-out: BPR
# [6] = Oral bioavailability in Sprague-Dawley rat at 3 mg/kg by HPLC analysis; assay type: ADME, organism-based; settings: in vivo
# [7] = molecular target: Phosphatidylinositol 4,5-bisphosphate 3-kinase catalytic subunit beta isoform (Homo sapiens, UniProt P42338); test: Inhibition of PI3Kbeta (unknown origin)
# [8] = Protein binding in Sprague-Dawley rat brain homogenate at 5 uM incubated for 4 hrs by LC-MS/MS analysis; assay type: ADME, tissue-based; settings: read-out: PB (converted)
# [9] = Selectivity index, ratio of IC50 for PDE4D (unknown origin) to IC50 for inhibition of mTOR in mouse MEF cells harboring TSC1 deletion mutant; assay type: cell-based
# [10] = Stability in rat liver microsomes assessed as intrinsic clearance; assay type: ADME, Microsome; settings: read-out: CLH
# [11] = molecular target: Myosin light chain kinase, smooth muscle (Homo sapiens) (UniProt Q15746); test: Inhibition of wild-type human […] MYLK (M854 to E1845 residues) expressed in mammalian expression system at 10000 nM by Kinomescan method
# Myosin light chain kinase, smooth muscle (Homo sapiens), sequence (Q15746 whole entry, the tested form may be a part): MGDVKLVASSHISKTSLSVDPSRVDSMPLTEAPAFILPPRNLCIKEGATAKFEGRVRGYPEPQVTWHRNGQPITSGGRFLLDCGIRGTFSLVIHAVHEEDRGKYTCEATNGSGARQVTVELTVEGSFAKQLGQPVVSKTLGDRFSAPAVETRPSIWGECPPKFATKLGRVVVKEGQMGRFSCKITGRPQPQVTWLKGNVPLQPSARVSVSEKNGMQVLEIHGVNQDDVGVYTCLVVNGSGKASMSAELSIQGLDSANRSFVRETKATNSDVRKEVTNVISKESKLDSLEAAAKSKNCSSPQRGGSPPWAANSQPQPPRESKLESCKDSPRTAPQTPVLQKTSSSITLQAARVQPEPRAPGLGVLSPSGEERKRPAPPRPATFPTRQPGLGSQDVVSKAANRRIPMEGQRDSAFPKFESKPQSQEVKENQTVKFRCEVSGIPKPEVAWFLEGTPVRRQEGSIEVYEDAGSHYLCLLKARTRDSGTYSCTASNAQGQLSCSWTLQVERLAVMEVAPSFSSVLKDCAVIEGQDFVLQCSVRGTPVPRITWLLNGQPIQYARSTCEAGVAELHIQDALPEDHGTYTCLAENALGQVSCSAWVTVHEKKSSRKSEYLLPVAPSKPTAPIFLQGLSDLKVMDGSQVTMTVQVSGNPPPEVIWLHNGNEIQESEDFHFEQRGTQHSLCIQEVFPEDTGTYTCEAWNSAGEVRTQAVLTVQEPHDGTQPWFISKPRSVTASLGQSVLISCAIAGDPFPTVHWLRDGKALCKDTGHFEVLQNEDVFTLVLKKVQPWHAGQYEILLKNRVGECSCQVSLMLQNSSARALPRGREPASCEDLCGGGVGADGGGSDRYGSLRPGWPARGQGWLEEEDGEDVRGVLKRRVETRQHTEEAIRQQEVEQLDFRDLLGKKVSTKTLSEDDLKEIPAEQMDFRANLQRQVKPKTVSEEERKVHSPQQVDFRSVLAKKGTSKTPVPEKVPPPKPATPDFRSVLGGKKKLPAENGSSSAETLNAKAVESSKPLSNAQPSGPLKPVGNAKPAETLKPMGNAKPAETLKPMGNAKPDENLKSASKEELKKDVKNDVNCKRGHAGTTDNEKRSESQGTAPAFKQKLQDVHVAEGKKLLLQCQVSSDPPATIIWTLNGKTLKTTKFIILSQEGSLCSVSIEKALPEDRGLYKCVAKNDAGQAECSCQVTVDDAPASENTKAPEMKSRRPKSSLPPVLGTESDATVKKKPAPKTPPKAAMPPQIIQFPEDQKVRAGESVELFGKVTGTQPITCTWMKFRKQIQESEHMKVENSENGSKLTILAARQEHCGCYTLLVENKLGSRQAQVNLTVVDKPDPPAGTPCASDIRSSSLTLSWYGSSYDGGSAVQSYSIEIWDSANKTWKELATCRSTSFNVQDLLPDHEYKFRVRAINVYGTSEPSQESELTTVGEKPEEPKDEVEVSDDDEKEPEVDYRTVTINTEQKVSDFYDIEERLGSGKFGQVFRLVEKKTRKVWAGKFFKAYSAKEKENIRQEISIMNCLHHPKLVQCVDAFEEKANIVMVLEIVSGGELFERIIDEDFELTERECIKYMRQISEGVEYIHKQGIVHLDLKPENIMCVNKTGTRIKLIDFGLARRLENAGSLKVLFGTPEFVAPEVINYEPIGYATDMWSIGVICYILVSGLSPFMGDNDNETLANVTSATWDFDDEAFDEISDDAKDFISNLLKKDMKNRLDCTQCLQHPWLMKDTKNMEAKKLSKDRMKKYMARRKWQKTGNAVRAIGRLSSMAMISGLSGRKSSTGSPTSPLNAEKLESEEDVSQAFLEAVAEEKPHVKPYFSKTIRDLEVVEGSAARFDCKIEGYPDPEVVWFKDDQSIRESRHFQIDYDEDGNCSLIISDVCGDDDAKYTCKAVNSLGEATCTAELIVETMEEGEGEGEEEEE
# [12] = Selectivity index, ratio of IC50 for ATM (unknown origin) to IC50 for inhibition of mTOR in mouse MEF cells harboring TSC1 deletion mutant; assay type: cell-based
# [13] = Clearance in C57BL/6 mouse at 1 mg/kg, iv or 5 mg/kg, po by HPLC analysis; assay type: ADME, organism-based; settings: in vivo
# [14] = tested on: Mus musculus; test: In vivo inhibition of PI3KCA in C57BL/6J mouse assessed as reduction in AKT phosphorylation Thr308 at 1 to 10 mg/kg, po measured after 24 hrs by Western blot analysis; assay type: functional, organism-based
# [15] = Ratio of drug concentration in brain to plasma in Sprague-Dawley rat at 3 mg/kg, po incubated for 24 hrs by LC-MS/MS analysis; assay type: ADME, organism-based; settings: read-out: BPR
# [16] = tested on: Cortical neurone; test: Inhibition of oversizing of mouse primary cortical neuron harboring TSC1 deletion mutant at 200 nM incubated for 7 days by immunofluorescence assay; assay type: functional, cell-based; settings: 168 h
# [17] = AUC (0 to t) in C57BL/6 mouse at 5 mg/kg, po by HPLC analysis; assay type: ADME, organism-based; settings: in vivo
# [18] = molecular target: Serine/threonine-protein kinase mTOR (Mus musculus, UniProt Q9JLN9); test: Inhibition of mTOR in mouse MEF cells harboring TSC1 deletion mutant assessed as reduction in PS6 phosphorylation incuabted for 2 hrs alexa fluor 594 and Hoechst staining based fluorescence assay; assay type: cell-based
# [19] = tested on: MDR1; test: Efflux ratio of permeability from basolateral to apical over apical to basolateral side in MDCK-MDR1 cells; assay type: ADME, cell-based, Canis lupus familiaris; settings: dog
# [20] = Ratio of drug concentration in brain to plasma in C57BL/6J mouse at 3 mg/kg, po incubated for 3 hrs by LC-MS/MS analysis; assay type: ADME, organism-based; settings: read-out: BPR
# [21] = molecular target: Serine/threonine-protein kinase mTOR (Rattus norvegicus, UniProt P42346); test: Inhibition of mTOR in rat primary cortical neuron assessed as reduction in PS6 phosphorylation incubated for 4 hrs by Western blot analysis (reference value: 19 nM)
# [22] = Cmax in Sprague-Dawley rat at 1 mg/kg, iv or 3 mg/kg, po by HPLC analysis; assay type: ADME, organism-based; settings: in vivo
# [23] = AUC (0 to t) in Sprague-Dawley rat at 1 mg/kg, iv by HPLC analysis; assay type: ADME, organism-based; settings: in vivo
# [24] = molecular target: Phosphatidylinositol 4,5-bisphosphate 3-kinase catalytic subunit delta isoform (Homo sapiens, UniProt O00329); test: Inhibition of PI3Kdelta (unknown origin)
# Phosphatidylinositol 4,5-bisphosphate 3-kinase catalytic subunit delta isoform, sequence (O00329 whole entry, canonical isoform): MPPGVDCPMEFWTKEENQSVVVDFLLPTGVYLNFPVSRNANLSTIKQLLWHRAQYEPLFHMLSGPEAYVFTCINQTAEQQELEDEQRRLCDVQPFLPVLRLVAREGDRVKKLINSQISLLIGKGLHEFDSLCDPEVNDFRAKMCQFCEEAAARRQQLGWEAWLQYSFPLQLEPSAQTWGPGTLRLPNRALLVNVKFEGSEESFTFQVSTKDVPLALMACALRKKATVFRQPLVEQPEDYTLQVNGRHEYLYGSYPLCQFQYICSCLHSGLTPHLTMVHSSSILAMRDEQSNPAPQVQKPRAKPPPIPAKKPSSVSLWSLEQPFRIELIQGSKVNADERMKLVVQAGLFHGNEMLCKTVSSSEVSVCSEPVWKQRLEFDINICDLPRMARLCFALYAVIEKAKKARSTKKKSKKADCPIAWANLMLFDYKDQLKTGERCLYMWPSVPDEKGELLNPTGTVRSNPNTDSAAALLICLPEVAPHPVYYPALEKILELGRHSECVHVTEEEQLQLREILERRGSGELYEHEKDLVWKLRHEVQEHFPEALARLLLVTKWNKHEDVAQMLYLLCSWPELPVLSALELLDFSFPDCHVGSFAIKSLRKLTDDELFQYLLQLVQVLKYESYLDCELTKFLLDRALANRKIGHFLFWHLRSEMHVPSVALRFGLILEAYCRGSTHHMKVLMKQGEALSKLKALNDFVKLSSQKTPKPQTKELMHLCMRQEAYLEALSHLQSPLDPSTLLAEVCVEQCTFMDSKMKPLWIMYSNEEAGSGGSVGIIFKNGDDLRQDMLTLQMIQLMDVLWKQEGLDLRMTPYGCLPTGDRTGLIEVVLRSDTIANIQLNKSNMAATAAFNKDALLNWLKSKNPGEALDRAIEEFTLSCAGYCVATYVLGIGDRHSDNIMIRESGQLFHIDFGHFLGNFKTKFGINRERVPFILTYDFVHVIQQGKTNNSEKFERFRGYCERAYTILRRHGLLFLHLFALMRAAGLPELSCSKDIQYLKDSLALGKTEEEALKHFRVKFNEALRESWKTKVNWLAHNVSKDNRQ
# [25] = AUC (0 to t) in C57BL/6 mouse at 1 mg/kg, iv by HPLC analysis; assay type: ADME, organism-based; settings: in vivo
# [26] = molecular target: Serine/threonine-protein kinase mTOR (Rattus norvegicus, UniProt P42346, C1483Y); test: Inhibition of mTOR C1483Y mutant in rat primary cortical neuron assessed as reduction in PS6 phosphorylation incubated for 4 hrs by Western blot analysis (reference value: 19 nM)
# [27] = Ratio of drug concentration in brain to plasma in C57BL/6 mouse at 1 mg/kg, iv incubated for 0.5 hrs by LC-MS/MS analysis; assay type: ADME, organism-based; settings: read-out: BPR
# [28] = tested on: Mus musculus; test: In vivo inhibition of mTOR pathway in C57BL/6J mouse assessed as reduction in mTORC1/mTORC2 complex by measuring PS6 phosphorylation level at 1 to 10 mg/kg, po measured after 24 hrs by Western blot analysis; assay type: functional, organism-based
# [29] = Volume of distribution at steady state in Sprague-Dawley rat at 1 mg/kg, iv or 3 mg/kg, po by HPLC analysis; assay type: ADME, organism-based; settings: in vivo, read-out: Vdss
# [30] = molecular target: 3',5'-cyclic-AMP phosphodiesterase 4D (Homo sapiens, UniProt Q08499); test: Inhibition of PDE4D (unknown origin)
# 3',5'-cyclic-AMP phosphodiesterase 4D, sequence (Q08499 whole entry): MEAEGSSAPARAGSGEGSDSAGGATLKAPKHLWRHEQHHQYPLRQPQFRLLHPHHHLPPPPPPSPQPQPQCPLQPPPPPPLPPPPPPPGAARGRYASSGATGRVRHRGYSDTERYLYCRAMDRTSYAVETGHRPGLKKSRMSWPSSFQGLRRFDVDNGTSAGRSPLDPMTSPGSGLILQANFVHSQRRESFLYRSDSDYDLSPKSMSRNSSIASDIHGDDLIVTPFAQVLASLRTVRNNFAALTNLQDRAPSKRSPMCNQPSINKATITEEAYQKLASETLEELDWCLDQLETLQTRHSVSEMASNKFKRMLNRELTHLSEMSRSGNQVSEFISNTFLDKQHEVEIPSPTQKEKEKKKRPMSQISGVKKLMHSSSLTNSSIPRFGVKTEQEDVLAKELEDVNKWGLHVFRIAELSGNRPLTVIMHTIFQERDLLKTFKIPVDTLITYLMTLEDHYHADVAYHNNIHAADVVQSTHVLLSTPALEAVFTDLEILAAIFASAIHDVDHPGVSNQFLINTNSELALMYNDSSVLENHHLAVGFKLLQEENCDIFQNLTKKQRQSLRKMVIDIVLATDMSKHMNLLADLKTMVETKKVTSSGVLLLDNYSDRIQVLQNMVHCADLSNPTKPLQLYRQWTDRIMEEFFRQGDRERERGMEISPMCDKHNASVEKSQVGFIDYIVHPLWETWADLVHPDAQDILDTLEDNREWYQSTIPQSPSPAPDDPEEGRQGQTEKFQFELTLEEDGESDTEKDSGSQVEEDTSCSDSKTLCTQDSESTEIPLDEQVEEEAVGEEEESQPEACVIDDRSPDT
# [31] = AUC (0 to t) in Sprague-Dawley rat at 3 mg/kg, po by HPLC analysis; assay type: ADME, organism-based; settings: in vivo
# [32] = Protein binding in Sprague-Dawley rat plasma at 5 uM incubated for 4 hrs by LC-MS/MS analysis; assay type: ADME, cell-free; settings: read-out: PPB (converted)
# [33] = Tmax in Sprague-Dawley rat at 1 mg/kg, iv or 3 mg/kg, po by HPLC analysis; assay type: ADME, organism-based; settings: in vivo
# [34] = molecular target: Serine/threonine-protein kinase mTOR (Rattus norvegicus, UniProt P42346, S2215F); test: Inhibition of mTOR S2215F mutant in rat primary cortical neuron assessed as reduction in PS6 phosphorylation incubated for 4 hrs by Western blot analysis (reference value: 19 nM)
# [35] = molecular target: Serine/threonine-protein kinase mTOR (Rattus norvegicus, UniProt P42346, E2419K); test: Inhibition of mTOR E2419K mutant in rat primary cortical neuron assessed as reduction in PS6 phosphorylation incubated for 4 hrs by Western blot analysis (reference value: 19 nM)
# [36] = molecular target: Cytochrome P450 2C9 (Homo sapiens, UniProt P11712); test: Inhibition of CYP2C9 (unknown origin); assay type: ADME
# Cytochrome P450 2C9, sequence (P11712 whole entry): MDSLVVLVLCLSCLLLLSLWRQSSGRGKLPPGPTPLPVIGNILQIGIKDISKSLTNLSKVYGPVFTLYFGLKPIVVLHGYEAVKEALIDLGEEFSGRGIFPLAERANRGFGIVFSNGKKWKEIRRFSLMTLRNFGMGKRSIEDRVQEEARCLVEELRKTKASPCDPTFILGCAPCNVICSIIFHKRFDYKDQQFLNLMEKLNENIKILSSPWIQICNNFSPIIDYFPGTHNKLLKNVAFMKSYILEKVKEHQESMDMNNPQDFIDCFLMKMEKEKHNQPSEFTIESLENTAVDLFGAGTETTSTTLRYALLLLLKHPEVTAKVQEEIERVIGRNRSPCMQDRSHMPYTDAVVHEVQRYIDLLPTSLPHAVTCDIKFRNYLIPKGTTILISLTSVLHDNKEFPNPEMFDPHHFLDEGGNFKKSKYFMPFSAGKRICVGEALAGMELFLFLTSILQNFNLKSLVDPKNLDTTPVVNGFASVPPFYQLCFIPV
# [37] = molecular target: Serine/threonine-protein kinase mTOR (Rattus norvegicus, UniProt P42346, L1460P); test: Inhibition of mTOR L1460P mutant in rat primary cortical neuron assessed as reduction in PS6 phosphorylation incubated for 4 hrs by Western blot analysis (reference value: 19 nM)
# [38] = Drug uptake in C57BL/6J mouse brain at 10 mg/kg, po incubated for 3 hrs by LC-MS/MS analysis; assay type: ADME, organism-based; settings: read-out: Drug uptake
smiles,measurement,setting,value
C[C@@H]1COCCN1c1nc(N2CCOC[C@@H]2C)nc2sc(-c3cc[nH]n3)nc12,Kp at 7 h,[1],1.2
same,MRT last,[2],4.3 h
same,concentration at 3 h,[3],4.47 µM
same,half-life,[4],4.3 h
same,Kp at 1 h,[5],4
same,bioavailability,[6],81%
same,IC50,[7],> 10000 nM
same,"fraction unbound at 4 h, 5 µM",[8],0.004
same,Ratio IC50,[9],38
same,microsomal CLint,[10],42 µL/min/mg
same,inhibition,[11],Active
same,Ratio IC50,[12],3570
same,clearance,[13],6.5 mL/min/kg
same,inhibition,[14],inactive
same,Kp at 24 h,[15],3.1
same,IC50,[16],30 nM
same,AUC(0-t),[17],14.9 µM·h
same,IC50,[18],5.6 nM
same,efflux ratio,[19],0.93
same,Kp at 3 h,[20],1.1
same,IC50,[21],17 nM
same,Cmax,[22],1.12 µM
same,AUC(0-t),[23],4.34 µM·h
same,IC50,[24],1700 nM
same,AUC(0-t),[25],4.41 µM·h
same,IC50,[26],37 nM
same,Kp at 0.5 h,[27],1
same,inhibition,[28],inactive
same,Vd,[29],2.6 L/kg
same,IC50,[30],210 nM
same,AUC(0-t),[31],10.5 µM·h
same,"fraction unbound at 4 h, 5 µM",[32],0.012
same,Tmax,[33],1.5 h
same,IC50,[34],17 nM
same,IC50,[35],22 nM
same,IC50,[36],> 50000 nM
same,IC50,[37],11 nM
same,concentration at 3 h,[38],5.82 µM
